Data: ChEMBL document CHEMBL5523740, “Discovery of Potent and Selective c-Met Degraders for Hepatocellular Carcinoma Treatment” (J Med Chem, 2024)

What was measured:
MHCC97H [1] = assay: Antiproliferative activity against human MHCC97H cells incubated for 24 hrs by CCK8 assay; type: functional, cell-based
[2] = target: Hepatocyte growth factor receptor (Homo sapiens, UniProt P08581); assay: Induction of c-Met degradation in human MHCC97H cells at 1 uM incubated for 24 hrs by Western blotting analysis; type: cell-based
Chain of Hepatocyte growth factor receptor (P08581 whole entry): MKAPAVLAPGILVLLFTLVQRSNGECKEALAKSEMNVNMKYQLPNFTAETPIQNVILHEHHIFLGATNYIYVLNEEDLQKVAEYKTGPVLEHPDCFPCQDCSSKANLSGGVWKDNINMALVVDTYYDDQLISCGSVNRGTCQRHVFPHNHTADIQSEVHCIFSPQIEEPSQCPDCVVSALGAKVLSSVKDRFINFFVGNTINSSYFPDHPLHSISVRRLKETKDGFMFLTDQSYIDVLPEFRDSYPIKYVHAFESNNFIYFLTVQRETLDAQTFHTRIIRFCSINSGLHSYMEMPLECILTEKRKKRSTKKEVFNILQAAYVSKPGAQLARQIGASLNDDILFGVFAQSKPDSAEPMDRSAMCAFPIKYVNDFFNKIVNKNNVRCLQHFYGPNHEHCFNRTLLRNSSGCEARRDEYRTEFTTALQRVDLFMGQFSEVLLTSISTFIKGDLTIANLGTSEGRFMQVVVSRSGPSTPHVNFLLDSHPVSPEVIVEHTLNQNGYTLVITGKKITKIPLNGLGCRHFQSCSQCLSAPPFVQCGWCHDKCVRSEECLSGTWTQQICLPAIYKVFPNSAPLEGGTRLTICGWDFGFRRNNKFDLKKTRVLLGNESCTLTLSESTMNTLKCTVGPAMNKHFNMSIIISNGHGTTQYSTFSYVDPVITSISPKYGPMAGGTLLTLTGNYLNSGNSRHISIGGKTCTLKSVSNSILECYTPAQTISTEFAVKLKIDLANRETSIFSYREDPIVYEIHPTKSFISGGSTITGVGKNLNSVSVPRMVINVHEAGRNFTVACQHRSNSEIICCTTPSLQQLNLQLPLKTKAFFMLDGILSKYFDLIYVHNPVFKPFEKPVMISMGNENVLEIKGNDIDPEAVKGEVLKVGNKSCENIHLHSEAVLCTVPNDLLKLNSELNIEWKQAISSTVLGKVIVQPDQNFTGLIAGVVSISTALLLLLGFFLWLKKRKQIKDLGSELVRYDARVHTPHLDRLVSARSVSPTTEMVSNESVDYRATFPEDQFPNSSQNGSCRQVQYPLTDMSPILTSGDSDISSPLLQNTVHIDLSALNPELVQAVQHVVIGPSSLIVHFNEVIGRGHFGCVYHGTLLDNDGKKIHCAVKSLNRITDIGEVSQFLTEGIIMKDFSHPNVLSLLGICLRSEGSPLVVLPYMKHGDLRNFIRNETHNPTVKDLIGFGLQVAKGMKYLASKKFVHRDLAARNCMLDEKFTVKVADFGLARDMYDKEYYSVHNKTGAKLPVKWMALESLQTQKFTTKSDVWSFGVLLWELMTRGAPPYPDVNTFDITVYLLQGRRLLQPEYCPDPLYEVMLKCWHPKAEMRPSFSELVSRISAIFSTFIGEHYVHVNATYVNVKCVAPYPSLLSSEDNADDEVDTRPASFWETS

[3] = Toxicity in BALB/c mouse xenografted with human MHCC97H cells assessed as liver lesions at 20 mg/kg, po qd for 22 days and measured every 2 days by H and E staining based assay; type: organism-based; conditions: in vivo, 528 h, time 22 day
[4] = Toxicity in BALB/c mouse xenografted with human MHCC97H cells assessed as reduction in body weight at 20 mg/kg, po qd for 22 days and measured every 2 days; type: organism-based; conditions: in vivo, 528 h, time 22 day
MHCC97H [5] = assay: Antitumor activity against human MHCC97H cells xenografted in BALB/c mouse assessed as tumor growth inhibition at 20 mg/kg, po qd for 22 days and measured every 2 days; type: functional; conditions: 528 h, time 22 day, read-out: TGI
MHCC97H [6] = assay: Induction of apoptosis in human MHCC97H cells assessed as necrotic cells at 3 nM incubated for 24 hrs by Annexin-V-FITC/PI staining based flow cytometry analysis (reference value: 1.77%); type: functional
[7] = Toxicity in BALB/c mouse xenografted with human MHCC97H cells assessed as heart lesions at 20 mg/kg, po qd for 22 days and measured every 2 days by H and E staining based assay; type: organism-based; conditions: in vivo, 528 h, time 22 day
BaF3 [8] = assay: Antiproliferative activity against mouse BaF3 cells harboring TPR-MET D1228N mutant fusion protein incubated for 72 hrs by CellTiter-Glo reagent based assay; type: functional, cell-based; conditions: BaF3, 72 h
BaF3 [9] = assay: Antiproliferative activity against mouse BaF3 cells harboring TPR-MET fusion protein incubated for 72 hrs by CellTiter-Glo reagent based assay; type: functional, cell-based; conditions: BaF3, 72 h
[10] = Toxicity in BALB/c mouse xenografted with human MHCC97H cells assessed as kidney lesions at 20 mg/kg, po qd for 22 days and measured every 2 days by H and E staining based assay; type: organism-based; conditions: in vivo, 528 h, time 22 day
MHCC97H [11] = assay: Induction of apoptosis in human MHCC97H cells assessed as viable cells at 3 nM incubated for 24 hrs by Annexin-V-FITC/PI staining based flow cytometry analysis (reference value: 86.3%); type: functional; conditions: read-out: Activity
MHCC97H [12] = assay: Induction of cell cycle arrest in human MHCC97H cells assessed as accumulation of cells at G2 phase at 3 nM incubated for 24 hrs by PI staining based flow cytometry analysis (reference value: 19.1%); type: functional
MHCC97H [13] = assay: Induction of cell cycle arrest in human MHCC97H cells assessed as accumulation of cells at G1 phase at 3 nM incubated for 24 hrs by PI staining based flow cytometry analysis (reference value: 70.4%); type: functional
[14] = Toxicity in BALB/c mouse xenografted with human MHCC97H cells assessed as lung lesions at 20 mg/kg, po qd for 22 days and measured every 2 days by H and E staining based assay; type: organism-based; conditions: in vivo, 528 h, time 22 day
MHCC97H [15] = assay: Induction of apoptosis in human MHCC97H cells assessed as late apoptotic cells at 3 nM incubated for 24 hrs by Annexin-V-FITC/PI staining based flow cytometry analysis (reference value: 4.24%); type: functional
[16] = Toxicity in BALB/c mouse xenografted with human MHCC97H cells assessed as spleen lesions at 20 mg/kg, po qd for 22 days and measured every 2 days by H and E staining based assay; type: organism-based; conditions: in vivo, 528 h, time 22 day
BaF3 [17] = assay: Antiproliferative activity against mouse BaF3 cells harboring TPR-MET Y1230H mutant fusion protein incubated for 72 hrs by CellTiter-Glo reagent based assay; type: functional, cell-based; conditions: BaF3, 72 h
MHCC97H [18] = assay: Induction of apoptosis in human MHCC97H cells assessed as early apoptotic cells at 3 nM incubated for 24 hrs by Annexin-V-FITC/PI staining based flow cytometry analysis (reference value: 7.70%); type: functional

Structure (SMILES)	IC50 (MHCC97H [1]) [nM]	Activity [2] [%]	also measured
N#Cc1cccc(-c2ccc(=O)n(Cc3cccc(-c4ncc(OCC5CCN(CC(=O)NCCCCNC(=O)CC67CC8CC(CC(C8)C6)C7)CC5)cn4)c3)n2)c1	139	< 10	
CC(C)[C@@H]1CC[C@@H](C)C[C@H]1OCC(=O)N1CCC(COc2cnc(-c3cccc(Cn4nc(-c5cccc(C#N)c5)ccc4=O)c3)nc2)CC1	258	35.8	
N#Cc1cccc(-c2ccc(=O)n(Cc3cccc(-c4ncc(OCC5CCN(CC(=O)NCCCCCCNC(=O)CC67CC8CC(CC(C8)C6)C7)CC5)cn4)c3)n2)c1	200	< 10	
N#Cc1cccc(-c2ccc(=O)n(Cc3cccc(-c4ncc(OCC5CCN(C(=O)CC67CC8CC(CC(C8)C6)C7)CC5)cn4)c3)n2)c1	67.2	67.4	
N#Cc1cccc(-c2ccc(=O)n(Cc3cccc(-c4ncc(OCC5CCN(C(=O)CC(c6ccccc6)c6ccccc6)CC5)cn4)c3)n2)c1	128	< 10	
N#Cc1cccc(-c2ccc(=O)n(Cc3cccc(-c4ncc(OCC5CCN(CC(=O)NCCCCCCCCNC(=O)CC67CC8CC(CC(C8)C6)C7)CC5)cn4)c3)n2)c1	156	< 10	
N#Cc1cccc(-c2ccc(=O)n(Cc3cccc(-c4ncc(OCC5CCN(CC(=O)NCC6CC7C=CC6C7)CC5)cn4)c3)n2)c1 (stereo unspecified)	73.6	50.2	
CN1CCC(COc2cnc(-c3cccc(Cn4nc(-c5cccc(C#N)c5)ccc4=O)c3)nc2)CC1 [TEPOTINIB]	3.66		Activity [3]: Non-Toxic; Activity [4]: Non-Toxic; inhibition in vivo at 20 mg/kg (MHCC97H [5]): 58.8%; Activity (MHCC97H [6]): 2.57%; Activity [7]: Non-Toxic; IC50 (BaF3 [8]): 2030 nM; IC50 (BaF3 [9]): 5.3 nM; Activity [10]: Non-Toxic; viability at 0.003 µM (MHCC97H [11]): 79.6%; Activity (MHCC97H [12]): 16.6%; Activity (MHCC97H [13]): 73.7%; Activity [14]: Non-Toxic; Activity (MHCC97H [15]): 3.84%; Activity [16]: Non-Toxic; IC50 (BaF3 [17]): 1840 nM; Activity (MHCC97H [18]): 13.9%
N#Cc1cccc(-c2ccc(=O)n(Cc3cccc(-c4ncc(OCC5CCN(CCCC(=O)NCC67CC8CC(CC(C8)C6)C7)CC5)cn4)c3)n2)c1	11.8	40.5	
N#Cc1cccc(-c2ccc(=O)n(Cc3cccc(-c4ncc(OCC5CCN(CC(=O)NCCCCCCCCCCNC(=O)CC67CC8CC(CC(C8)C6)C7)CC5)cn4)c3)n2)c1	155	< 10	
N#Cc1cccc(-c2ccc(=O)n(Cc3cccc(-c4ncc(OCC5CCN(C(=O)CC6c7ccccc7-c7ccccc76)CC5)cn4)c3)n2)c1	935	15.8	
N#Cc1cccc(-c2ccc(=O)n(Cc3cccc(-c4ncc(OCC5CCN(CCNC(=O)CC67CC8CC(CC(C8)C6)C7)CC5)cn4)c3)n2)c1	22.9	11.1	
N#Cc1cccc(-c2ccc(=O)n(Cc3cccc(-c4ncc(OCC5CCN(CC(=O)NCCNC(=O)CC67CC8CC(CC(C8)C6)C7)CC5)cn4)c3)n2)c1	40.2	22.4	
